Here are results for seven compounds from PubChem BioAssay (NCI).

The structures appear in SMILES notation.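 Compound exposure: 48 hours, 5 concentrations, 96-well plates. The concentration for 50% growth inhibition is given as GI50. The concentration for full growth arrest is given as TGI.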 Some results are limits rather than exact numbers.

Holding throughout (test): DTP human tumour cell line panel, 48 h
Assay [1] has as its system MDA-MB-435.
For assay [2], the system named is OVCAR-5 ovarian.
Assay [3] has as its system SK-MEL-28 melanoma.
For assay [4], the system named is SK-OV-3 ovarian.
Assay [5] relates to SN12C renal.
Assay [6] has as its system HCT-116 colon.
For assay [7], the system named is NCI-H226 lung.
In assay [8] the test system is HCT-15 colon.
The test system of assay [9] is A549 NSCLC.
Assay [10] has as its system HOP-62 NSCLC.

For `CO[C@H]1CC(c2ccc[nH]2)=N[C@]12O[C@@H](C)C[C@@H]1CCCCCCCc3ccc([nH]3)[C@H]12`, the GI50 (commonly the concentration that inhibits growth by half) is 1.1 µM in assay [1]; 1.25 µM in assay [2]; 1.92 µM in [3]; 4.41 µM in [4]; 1.49 µM in assay [5]; 0.711 µM in [6]. Further, the GI50 in assay [7] is 0.929 µM; in assay [8], 0.851 µM; in assay [9] it was 1.04 µM; in assay [10], 1.35 µM. In addition, the TGI (in general, the concentration giving total growth inhibition) worked out at 4.29 µM in [1]; 6.22 µM in [2]; 8.26 µM in [3]; 18.9 µM in assay [4]; 18.9 µM in assay [5]; 3.48 µM in assay [6]. For the same compound, the total growth inhibition concentration (TGI) stood at 5.25 µM in [7], 8.51 µM in assay [8], 7.31 µM in assay [9] and 14.9 µM in assay [10].
For the compound `COc1cc(/C=C/C(=O)c2cccnc2Nc2ccc(F)cc2)cc(OC)c1OC`, the GI50 was 3.05 µM in assay [1]; 4.1 µM in assay [2]; 3.22 µM in assay [3]; 3.1 µM in assay [4]; 3.23 µM in assay [5]; 1.54 µM in assay [6]. For the same compound, the GI50 is 1.79 µM in assay [7], 2.28 µM in [8], 2.66 µM in [9] and 2.9 µM in [10]. For the same compound, the TGI is 69.3 µM in assay [1]; 17.8 µM in assay [2]; 17.3 µM in assay [3]; 8.67 µM in [4]; > 100 µM in assay [5]; 2.96 µM in assay [6]. The TGI in [7] worked out at 3.78 µM; in [8], 5.95 µM; in assay [9] it was 11.5 µM; in [10], 7.82 µM.
For `Cc1c(Sc2ccccc2)[n+](=O)c2cc(Cl)c(Cl)cc2n1[O-]`, the GI50 in assay [1] is 95.6 µM; in assay [2], > 100 µM; in assay [3], > 100 µM; in assay [4] it was > 100 µM; in assay [5], > 100 µM; in assay [6], 27.4 µM. Also, the GI50 in [7] is > 100 µM; in assay [8], 53.7 µM; in assay [9] it was > 100 µM; in assay [10], > 100 µM. The TGI in assay [1] is > 100 µM; in [2] it was > 100 µM; in assay [3], > 100 µM; in assay [4], > 100 µM; in assay [5] it was > 100 µM; in assay [6], 59.4 µM. Further, the total growth inhibition concentration (TGI) in [7], in [8], in assay [9] and in assay [10] was > 100 µM throughout.
For the compound `CCn1c2ccccc2c2cc(C(O)c3cccc4ncccc34)ccc21` (centres undefined), the concentration for 50% growth inhibition (GI50) in [1] is 0.0215 µM; in assay [2], 3.25 µM; in assay [3], 3.47 µM; in assay [4], 0.0545 µM; in [5] it was 0.0591 µM; in assay [6], 0.0441 µM. Also, the GI50 in assay [7] is 0.831 µM; in [8], 0.0409 µM; in assay [9], 0.0684 µM; in assay [10] it was 0.0507 µM. Further, the TGI was 0.06 µM in assay [1]; > 100 µM in assay [2]; > 100 µM in [3]; > 100 µM in assay [4]; 6.24 µM in [5]; 15.4 µM in [6]. For the same compound, the total growth inhibition concentration (TGI) in assay [7] was 46.8 µM; in assay [8] it was 12.1 µM; in assay [9], > 49.4 µM; in assay [10], > 73.3 µM.
Turning to `CC(C)CCN[C@@H]1CCc2cc(O)c(N3CC(=O)NS3(=O)=O)c(F)c2C1`, the GI50 in [1], in assay [2], in [3], in [4], in assay [5] and in assay [6] was > 100 µM throughout. Also, the GI50 in assay [7], in assay [8], in [9] and in [10] was > 100 µM throughout. Further, the TGI in [1], in [2], in assay [3], in assay [4], in [5] and in [6] was > 100 µM in each case. In addition, the TGI in [7], in assay [8], in assay [9] and in assay [10] was > 100 µM throughout.
With `Cc1cc2c(cc1N)C(C)C1(CCC(=O)N2Cc2ccccc2)OCCO1` (centres undefined), the TGI in assay [1], in assay [2], in assay [3], in [4], in [5] and in assay [6] was > 100 µM in each case. For the same compound, the TGI in assay [7], in [8], in [9] and in [10] was > 100 µM throughout.
`Clc1nc(Cl)c2ncn(Cc3ccc(Cn4cnc5c(Cl)nc(Cl)nc54)cc3)c2n1`: the GI50 in assay [1] was 14.2 µM; in assay [2] it was 2.03 µM; in assay [4] it was > 100 µM; in assay [5], 12.1 µM; in assay [6] it was 0.852 µM; in assay [7], 11.2 µM. In addition, the GI50 was 6.24 µM in [8], 11.5 µM in [9] and 6.73 µM in assay [10]. The TGI was 33.6 µM in [1]; 10.9 µM in assay [2]; 28.3 µM in assay [3]; > 100 µM in [4]; 32.4 µM in [5]; 16.2 µM in assay [6]. For the same compound, the TGI is 51.6 µM in [7], 19.3 µM in assay [8], 25.5 µM in assay [9] and 21.5 µM in assay [10].
